For the experiment, the target named is SARS-CoV-2 RdRp (Severe acute respiratory syndrome coronavirus 2, UniProt P0DTD1). Put plainly: CoV-Gluc RNA levels by real-time RT-PCR after NA treatment. It counts as cell-based. As to conditions: HEK293T, 1 μM, 24 h. Background: Quantitative PCR measures a nucleic acid by following its amplification.

As for `CCC(CC)COC(=O)[C@H](C)N[P@](=O)(OC[C@H]1O[C@@](C#N)(c2ccc3c(N)ncnn23)[C@H](O)[C@@H]1O)Oc1ccccc1` [Remdesivir], the “reduction of minus-strand Gluc RNA” value worked out at 60%.

The record behind these values is publication PMC8059291 (Antiviral Research, 2021).
